We go through 36 compounds from US11780839B2, “Compounds for treating Huntington's disease” (PTC THERAPEUTICS, INC., priority 2018, dated 2023).

This assay relates to Endogenous Huntingtin Protein. Briefly: Endogenous Huntingtin Protein Assay (ELISA-based Meso Scale Discovery electrochemiluminescence). Type of assay: cell-based. Conditions: MSD electrochemiluminescence, Table 1. An outline of the steps:
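Sandwich MSD electrochemiluminescence immunoassay. Capture used MW1 (expanded polyglutamine) or MAB2166 antibody coated at 1 μg/mL overnight at 4 °C. Samples were bound overnight at 4 °C, then a rabbit monoclonal detection antibody and SULFO-TAG anti-rabbit, each at 0.25 μg/mL, were applied for 1 h at room temperature.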
The compound `CNC1CCN(c2ncc(-c3ccc(-n4nccn4)cc3O)nn2)C1` (stereo not drawn) [Cpd 218, 2-{3-[3-(methylamino)pyrrolidin-1-yl]-1,2,4-triazin-6-yl}-5-(2H-1,2,3-triazol-2-yl)phenol] had an IC50 of 100 to 500 nM.

For `CN(c1ncc(-c2cc3cccnc3cc2O)nn1)C1CC(C)(C)NC(C)(C)C1` [Cpd 105, 6-{3-[methyl(2,2,6,6-tetramethylpiperidin-4-yl)amino]-1,2,4-triazin-6-yl}quinolin-7-ol], the IC50 lay within 100 to 500 nM.

`CN(c1ncc(-c2ccc(-c3ncc4c(cnn4C)n3)cc2O)nn1)C1CC(C)(C)NC(C)(C)C1` [Cpd 281, 5-(1-methyl-1H-pyrazolo[4,3-d]pyrimidin-5-yl)-2-{3-[methyl(2,2,6,6-tetramethylpiperidin-4-yl)amino]-1,2,4-triazin-6-yl}phenol] yielded an IC50 not above 100 nM.

Turning to `CN(c1ncc(-c2ccc(-c3ccc4ncccc4c3)cc2O)nn1)C1CC(C)(C)NC(C)(C)C1` [Cpd 185, 2-{3-[methyl(2,2,6,6-tetramethylpiperidin-4-yl)amino]-1,2,4-triazin-6-yl}-5-(quinolin-6-yl)phenol], the IC50 was not above 100 nM.

Take `CN(c1ncc(-c2ccc(-c3ncco3)cc2O)nn1)C1CC(C)(C)NC(C)(C)C1` [Cpd 7, 2-{3-[methyl(2,2,6,6-tetramethylpiperidin-4-yl)amino]-1,2,4-triazin-6-yl}-5-(1,3-oxazol-2-yl)phenol]: the IC50 is not above 100 nM.

On to `Cn1ncc2cc(-c3ccc(-c4cnc(N5CCC(NC(C)(C)C)C5)nn4)c(O)c3)ccc21` (stereo not drawn) [Cpd 208, 2-{3-[3-(tert-butylamino)pyrrolidin-l-yl]-1,2,4-triazin-6-yl}-5-(1-methyl-1H-indazol-5-yl)phenol], for which the IC50 was 100 to 500 nM.

Compound `Oc1cc(-c2c[nH]nc2F)ccc1-c1cnc(N2CC3(CCNCC3)C2)nn1` [Cpd 151, 2-[3-(2,7-diazaspiro[3.5]nonan-2-yl)-1,2,4-triazin-6-yl]-5-(3-fluoro-1H-pyrazol-4-yl)phenol] yielded an IC50 not above 100 nM.

In turn, `CC1(C)CC(Nc2ncc(-c3ccc(-c4cncnn4)cc3O)nn2)CC(C)(C)N1` [Cpd 305, 2-{3-[(2,2,6,6-tetramethylpiperidin-4-yl)amino]-1,2,4-triazin-6-yl}-5-(1,2,4-triazin-6-yl)phenol] displayed an IC50 not above 100 nM.

Compound `Cn1cc(-c2ccc(-c3cnc(N4CCC(C)(N)C4)nn3)c(O)c2)cn1` (stereo not drawn) [Cpd 389, 2-[3-(3-amino-3-methylpyrrolidin-1-yl)-1,2,4-triazin-6-yl]-5-(1-methyl-1H-pyrazol-4-yl)phenol] gave an IC50 not above 100 nM.

Turning to `CN(c1ncc(-c2ccc(-c3cc4nc[nH]c4c(F)c3F)cc2O)nn1)C1CC(C)(C)NC(C)(C)C1` [Cpd 301, 5-(6,7-difluoro-1H-benzimidazol-5-yl)-2-{3-[methyl(2,2,6,6-tetramethylpiperidin-4-yl)amino]-1,2,4-triazin-6-yl}phenol], the IC50 was not above 100 nM.

In the case of `CC1(C)CC(Oc2cnc(-c3ccc(-c4cn[nH]c4)cc3O)nn2)CC(C)(C)N1` [Cpd 419, 5-(1H-pyrazol-4-yl)-2-{6-[(2,2,6,6-tetramethylpiperidin-4-yl)oxy]-1,2,4-triazin-3-yl}phenol], the IC50 is not above 100 nM.

In turn, `Cn1cc(-c2ccc(-c3cnc(N4CCC(NC5COC5)C4)nn3)c(O)c2)cn1` (stereo not drawn) [Cpd 313, 5-(1-methyl-1H-pyrazol-4-yl)-2-(3-{3-[(oxetan-3-yl)amino]pyrrolidin-1-yl}-1,2,4-triazin-6-yl)phenol] returned an IC50 of 1000 to 3000 nM.

Compound `Oc1cc(-c2cn[nH]c2)ccc1-c1cnc(N2CCC(NC3CCCC3)C2)nn1` (stereo not drawn) [Cpd 357, 2-{3-[3-(cyclopentylamino)pyrrolidin-l-yl]-1,2,4-triazin-6-yl}-5-(1H-pyrazol-4-yl)phenol] gave an IC50 not above 100 nM.

`CN(c1ncc(-c2ccc(-c3ccc(O)nn3)cc2O)nn1)C1CC(C)(C)NC(C)(C)C1` [Cpd 134, 6-(3-hydroxy-4-{3-[methyl(2,2,6,6-tetramethylpiperidin-4-yl)amino]-1,2,4-triazin-6-yl}phenyl)pyridazin-3-ol] displayed an IC50 not above 100 nM.

Compound `CC(C)CNC1CCN(c2ncc(-c3ccc(-c4cn[nH]c4)cc3O)nn2)C1` (stereo not drawn) [Cpd 297] had an IC50 not above 100 nM.

`CC1(C)CC(Nc2ncc(-c3ccc(-n4nccn4)cc3O)nn2)CC(C)(C)N1` [Cpd 121, 2-{3-[(2,2,6,6-tetramethylpiperidin-4-yl)amino]-1,2,4-triazin-6-yl}-5-(2H-1,2,3-triazol-2-yl)phenol] gave an IC50 not above 100 nM.

For the compound `CN[C@H]1CCN(c2ncc(-c3ccc(-c4cn[nH]c4)cc3O)nn2)C1` [Cpd 114, 2-{3-[(3S)-3-(methylamino)pyrrolidin-l-yl]-1,2,4-triazin-6-yl}-5-(1H-pyrazol-4-yl)phenol], the IC50 is not above 100 nM.

As for `CN(c1ncc(-c2ccc(-c3cnn(C)n3)cc2O)nn1)C1CC(C)(C)NC(C)(C)C1` [Cpd 23, 2-{3-[methyl(2,2,6,6-tetramethylpiperidin-4-yl)amino]-1,2,4-triazin-6-yl}-5-(2-methyl-2H-1,2,3-triazol-4-yl)phenol], the IC50 is not above 100 nM.

With `Cn1cnc(-c2ccc(-c3cnc(N4CCC(NC(C)(C)C)C4)nn3)c(O)c2)cc1=O` (stereo not drawn) [Cpd 216, 6-(4-{3-[3-(tert-butylamino)pyrrolidin-1-yl]-1,2,4-triazin-6-yl}-3-hydroxyphenyl)-3-methylpyrimidin-4(3H)-one], the IC50 was 100 to 500 nM.

In turn, “5-[1-(^2H3)methyl-1H-pyrazol-4-yl]-2-{6-[methyl(2,2,6,6-tetramethylpiperidin-4-yl)amino]-1,2,4-triazin-3-yl}phenol [Cpd 192]” showed an IC50 of 100 to 500 nM.

For `CN(c1ncc(-c2ccc(-c3cn[nH]c3)cc2O)nn1)C1CCNCC1` [Cpd 19, 2-{3-[methyl(piperidin-4-yl)amino]-1,2,4-triazin-6-yl}-5-(1H-pyrazol-4-yl)phenol], the 50% inhibitory concentration (IC50) was not above 100 nM.

Consider `Cc1nnn(-c2ccc(-c3cnc(N(C)C4CC(C)(C)NC(C)(C)C4)nn3)c(O)c2)n1` [Cpd 119, 2-{3-[methyl(2,2,6,6-tetramethylpiperidin-4-yl)amino]-1,2,4-triazin-6-yl}-5-(5-methyl-2H-tetrazol-2-yl)phenol], for which the IC50 was not above 100 nM.

Compound `CC(C)NC1CCN(c2ncc(-c3ccc(-n4nccn4)cc3O)nn2)C1` (stereo not drawn) [Cpd 264] returned an IC50 of 100 to 500 nM.

`CC1(C)C[C@H](Nc2ncc(-c3ccc(-c4ccc5nccn5n4)cc3O)nn2)[C@H](F)C(C)(C)N1` [Cpd 249, 2-(3-{[(3S,4S)-3-fluoro-2,2,6,6-tetramethylpiperidin-4-yl]amino}-1,2,4-triazin-6-yl)-5-(imidazo[1,2-b]pyridazin-6-yl)phenol] returned an IC50 not above 100 nM.

With `CC(C)NC1CCN(c2ncc(-c3ccc(-c4cnn(C)c4)cc3O)nn2)C1` (stereo not drawn) [Cpd 203], the IC50 is not above 100 nM.

For the compound `CC(C)NC1CCN(c2ncc(-c3ccc(-n4cc(F)cn4)cc3O)nn2)C1` (stereo not drawn) [Cpd 338, 5-(4-fluoro-1H-pyrazol-1-yl)-2-(3-{3-[(propan-2-yl)amino]pyrrolidin-1-yl}-1,2,4-triazin-6-yl)phenol], the IC50 is 100 to 500 nM.

For `CN(c1ncc(-c2ccc(-c3ccc4nnnn4n3)cc2O)nn1)C1CC(C)(C)NC(C)(C)C1` [Cpd 178, 2-{3-[methyl(2,2,6,6-tetramethylpiperidin-4-yl)amino]-1,2,4-triazin-6-yl}-5-(tetrazolo[1,5-b]pyridazin-6-yl)phenol], the IC50 is not above 100 nM.

`CN(c1ncc(-c2ccc(-n3cnc(F)c3)cc2O)nn1)C1CC(C)(C)NC(C)(C)C1` [Cpd 50, 5-(4-fluoro-1H-imidazol-1-yl)-2-{3-[methyl(2,2,6,6-tetramethylpiperidin-4-yl)amino]-1,2,4-triazin-6-yl}phenol]: the IC50 is not above 100 nM.

The compound `CC1(C)CC(Nc2ncc(-c3ccc(-c4ncccn4)cc3O)nn2)CC(C)(C)N1` [Cpd 279, 5-(pyrimidin-2-yl)-2-{3-[(2,2,6,6-tetramethylpiperidin-4-yl)amino]-1,2,4-triazin-6-yl}phenol] displayed an IC50 not above 100 nM.

As to `Cn1ncc(-c2ccc(-c3cnc(N4CCC(NC(C)(C)C)C4)nn3)c(O)c2)n1` (stereo not drawn) [Cpd 210, 2-{3-[3-(tert-butylamino)pyrrolidin-1-yl]-1,2,4-triazin-6-yl}-5-(2-methyl-2H-1,2,3-triazol-4-yl)phenol], the IC50 is not above 100 nM.

Regarding `CN(c1ncc(-c2ccc(-c3cnc4[nH]ncc4c3)cc2O)nn1)C1CC(C)(C)NC(C)(C)C1` [Cpd 132, 2-{3-[methyl(2,2,6,6-tetramethylpiperidin-4-yl)amino]-1,2,4-triazin-6-yl}-5-(1H-pyrazolo[3,4-b]pyridin-5-yl)phenol], the IC50 lay within 100 to 500 nM.

With `CN(c1ncc(-c2ccc(-c3nccs3)cc2O)nn1)C1CC(C)(C)NC(C)(C)C1` [Cpd 58, 2-{3-[methyl(2,2,6,6-tetramethylpiperidin-4-yl)amino]-1,2,4-triazin-6-yl}-5-(1,3-thiazol-2-yl)phenol], the IC50 is not above 100 nM.

`Oc1cc(-c2cn[nH]c2)ccc1-c1cnc(N2CCC(NC3CC3)C2)nn1` (stereo not drawn) [Cpd 137, 2-{3-[3-(cyclopropylamino)pyrrolidin-1-yl]-1,2,4-triazin-6-yl}-5-(1H-pyrazol-4-yl)phenol] showed an IC50 not above 100 nM.

On to `CC1(C)C[C@H](Nc2ncc(-c3ccc(-c4ncco4)cc3O)nn2)[C@H](F)C(C)(C)N1` [Cpd 288, 2-(3-{[(3S,4S)-3-fluoro-2,2,6,6-tetramethylpiperidin-4-yl]amino}-1,2,4-triazin-6-yl)-5-(1,3-oxazol-2-yl)phenol], for which the IC50 was not above 100 nM.

Regarding `Cc1cnn(-c2ccc(-c3cnc(N(C)C4CC(C)(C)NC(C)(C)C4)nn3)c(O)c2)n1` [Cpd 69, 2-{3-[methyl(2,2,6,6-tetramethylpiperidin-4-yl)amino]-1,2,4-triazin-6-yl}-5-(4-methyl-2H-1,2,3-triazol-2-yl)phenol], the IC50 is not above 100 nM.

Compound `CN(c1ncc(-c2ccc(-c3ccc4[nH]ncc4n3)cc2O)nn1)C1CC(C)(C)NC(C)(C)C1` [Cpd 136, 2-{3-[methyl(2,2,6,6-tetramethylpiperidin-4-yl)amino]-1,2,4-triazin-6-yl}-5-(1H-pyrazolo[4,3-b]pyridin-5-yl)phenol] had an IC50 not above 100 nM.

A word on the IC50: it is the midpoint of a concentration-inhibition curve. High values mean a need for much substance, low ones inhibition by little substance.
